The values below are quoted from earlier work in US9775839B2, “2-pyrazine carboxamides as spleen tyrosine kinase inhibitors” (Merck Sharp & Dohme Corp., priority 2014, dated 2017).

Structures are written as SMILES.

One data set has as its system PGD2. To be noted: dosed intranasally, allergic rhinitis, phase I/II study.
For data set [1] the following is noted: allergic rhinitis, phase II clinical trial.

As for `Oc1cccc(Nc2ncc(F)c(Nc3cccc(O)c3)n2)c1` [Example R112], in the data set on PGD2, the “change in PGD2” value was “statistically significant decrease” and the clinical safety result is given as “safe across a range of indicators”. Moreover, the efficacy versus placebo result in data set [1] was “lack of efficacy”.
